The values below are quoted from earlier work in patent publication US20050042289A1, “Tablets and methods for modified release of hydrophylic and other active agents” (Yamanouchi Pharma Technologies, Inc., priority 2003, published 2005).

For the data set the following is noted: in water at 25° C., hemihydrate.

Structures can show the parent of a compound that is named as a salt. Where two headings read alike, the source gives them in different places.

As to `CC1OC2(CS1)CN1CCC2CC1` (racemic) [SNI-2011, (+/−)-cis-2-methylspiro [1,3-oxathiolane-5,3′-quinuclidine] hydrochloride, hemihydrate], the water solubility was 766 mg/mL (listed as Cevimeline hydrochloride), approximately 800 mg/mL (listed as methylspiro hydrochloride salt) and “about 1,400 mg/ml” (hydrochloride).
